Test results: US6566081B1, “Methods of identifying a compound which modulates the non-transcriptional non-map-kinase induced effects of steroid hormones” (The Brigham and Women's Hospital, Inc., priority 1999, dated 2003)
“Also recorded” adds a separate entry of the source. Numbered stars: 1 amine (or outer) side, 2 acyl side, 3 side chain; on linkers, the order of the positions; unused ones are H or OH. Bridge positions count the residues as written; N and C are the ends. Square brackets hold non-standard residues; d marks the D form. Peptide text beside a SMILES is read from it. I, II: the chains in the order shown. Actinocin(9to1) = Cc1c2oc3c(C)ccc(C(=O)[*:1])c3nc-2c(C(=O)[*:2])c(N)c1=O; NMeV = CN[C@H](C(=O)O)C(C)C; Sar = CNCC(=O)O

Key:
NO release = assay: Nitrite assay (NO accumulation from endothelial cells); assay type: cell-based, human; conditions: 30 min; E2/αE2 10 nM, insulin 100 nM, acetylcholine
Protocol: NO accumulation from serum-starved endothelial cells was determined by a modified nitrite assay using 2, 3 diaminonaphtalene as described previously.^33 Fluorescence of 1-(H)-naphtotriazole was measured with excitation and emission wavelengths of 365 and 450 nm, respectively. Standard curves were constructed with known amounts of sodium nitrite. Nonspecific fluorescence was determined in the presence of LNMA (3 mM).

eNOS = eNOS activity assay (conversion of [3H]-arginine to [3H]-citrulline) in treated human endothelial cells; assay type: cell-based; conditions: for effect on E2-stimulated eNOS activity, later phase (≥15 min) or 30 min / effect on E2-stimulated eNOS activity, initial phase (first 5-10 min): E2 10 nM, wortmannin 30 nM, genistein 50 μM, PD98059 5 μM; for effect on E2-stimulated eNOS activity, later phase (≥15 min) or 30 min: ICI 10 μM, actinomycin D 2 h pretreatment
Protocol: Fetal bovine serum was deprived of estrogen by charcoal-stripping. Once grown to confluence the cells were replated on 1.5% gelatin-coated flasks at 20000 cells/cm^2. […] Cell number was assessed by direct cell counting of adherent cells, after trypsin detachment, in a Neubauer hemocytometer (VWR Scientifics). The percentage of cells excluding Trypan Blue after staining with the compound was taken as a measure of cell viability.
Endothelial cells were grown to confluence on 55 cm^2 culture dishes, treated according to the indicated conditions, and harvested in ice-cold PBS containing 1 mM EDTA. The cell lysates were pelleted in a microfuge (2 minutes, 13000 rpm, 4° C.) and subsequently homogenized in a buffer containing 25 mM Tris-HCl, pH 7.4, 1 mM EDTA, 1 mM EGTA. eNOS activity was determined by measuring the conversion of [^3H]-arginine to [^3H]-citrulline. Rat cerebellum extracts, containing elevated amounts of neuronal NOS, were used as positive controls, while endothelial cell extracts incubated in the presence of the competitive eNOS inhibitor L-NAME (1 mM) served as negative controls.
Human and bovine aortic endothelial cells were harvested enzymatically with Type IA collagenase (1 mg/mL).

Akt/PKB [1] = assay: Akt kinase assay (immunoprecipitated Akt, GSK-3 peptide); assay type: cell-based, human; conditions: E2/αE2 10 nM, insulin 100 nM, 20 min
Protocol: Immunoprecipitated Akt kinase activity was assayed on endothelial cell lysates by using the Aktl/PKBα immunoprecipitation kinase assay kit (Upstate Biotechnology, Lake Placid, N.Y.). Endothelial cells were starved in phenol red-free199 medium with 0.4% estrogen-deprived FBS, treated, washed, and then harvested in ice-cold Buffer A (50 mM Tris-HCl, pH 7.5, 1 mM EDTA, 1 mM EGTA, […] Na3VO4, 0.1% (v/v) 2-mercaptoethanol, 1% Triton X-100, 50 mM sodium fluoride, 5 mM sodium pyrophosphate, 10 mM sodium glycerophosphate, 0.1 mM PMSF, 1 μg/mL of aprotinin, pepstatin, leupeptin and 1 μM microcystin). The cleared cell lysates were incubated for 1 hour at 4° C. with 4 μg/tube of anit-Akt1/PKBα PH domain immunoaffinity purified sheep IgG, after which 50 μL of a 1:1 (v/v) protein G-agarose slurry was added for an additional hour of incubation at 4° C. After centrifugation, the immunoprecipitates were washed three times with Buffer A containing 0.5 M NaCl, then two times with Buffer B (50 mM Tris-HCl, pH 7.5, 0.03% (w/v) Brij-35, 0.1 mM EGTA, 0.1% (v/v) 2-mercaptoethanol), and finally twice with 1×Assay Buffer (20 mM MOPS, pH 7.2, 25 mM β-glycerol phosphate, 5 mM EGTA, 1 mM Na3VO4, 1 mM DTT).
The immunoprecipitates were resuspended in 10 μL of ice-cold 1×Assay Buffer, and were sequentially added: 10 μL of 40 μM PKA inhibitor peptide ([…]-NH2—corresponding to residues 7-23 of human PKA inhibitor), 10 μL of Akt/PKB specific substrate peptide (100 μM) (RPRAATF—corresponding to the phosphorylation site of glycogen synthase kinase-3, specifically targeted by Akt/PKB, but not by other protein kinases such as Rsk-2 and p70 S6 kinase), and 10 μL of [γ-^32P]ATP stock solution (1×Assay Buffer with 500 μM ATP, 75 mM MgCl2, containing 1 μCi/μL [γ^32-P]ATP, 3000 Ci/mmol). The reaction was incubated at 37° C. for 30 minutes, after which 40 μL of the supernatant was mixed with 20 μL of 40% TCA and incubated for 5 minutes at room temperature. 40 μL of each final fraction were spotted onto the center of a 2 cm×2 cm P81 phosphocellulose paper. The assay squares were washed three times with 0.75% phosphoric acid for five minutes at room temperature, then once with acetone. The squares were then transferred to vials containing a liquid scintillation cocktail and read in a scintillation counter. Blank reaction for the detection of the unspecific background were performed by substituting the cell lysate with Buffer A at the beginning of the procedure, and aspecific endogenous phosphorylation of proteins in the sample extract was estimated by substituting in some samples 1×Assay Buffer for the Akt/PKB specific substrate peptide.

PI3-kinase = PI3-kinase assay on p85 immunoprecipitates of endothelial cell lysates; assay type: cell-based, human; conditions: for stimulation of PI3-kinase activity: 20 min, E2/αE2 10 nM, insulin 100 nM
Protocol: PI3kinase activity in endothelial cell lysates was assayed using the borate thin layer chromatography method, as described.^34 Following a 6 h incubation in serum- and estrogen-deficient medium 199, endothelial cells were treated according to the indicated conditions, washed, and harvested in ice-cold lysis buffer (137 mM NaCl, 20 mM Tris-HCl, pH 7.4, 1 mM CaCl2, 1 mM Mg Cl2, 0.1 mM Na3VO4, 1% NP-40). After pelleting the cell debris, the supernatant was incubated for 1 hour at 4° C. with 5 μL of a rabbit antiserum directed against the p85 regulatory subunit of the PI3-kinase (Upstate Biotechnology, Lake Placid, N.Y.), and immunoprecipitated with the addition of 50 μL of a 1:1 slurry of protein A-agarose for 1 hour at 4° C. Following centrifugation, the immunoprecipitates were washed three times with lysis buffer, three times with 0.1 M Tris-HCl, pH 7.4, 5 mM LiCl, 0.1 mM Na3VO4, followed by two washes with 10 mM Tris-HCl, pH 7.4, 150 mM NaCl, 5 mM EDTA, 0.1 mM Na3VO4.
The immunoprecipitates were then mixed with 50 μL Tris-HCl, pH 7.4, 150 mM NaCl, 5 mM EDTA, 20 μg of phosphatidylinositol (Sigma, Saint Louis, Mo.), 10 μL 100 mM MgCl2 and 5 μL of a 0.88 mM ATP, 20 mM MgCl2 solution, containing 30 μCi of [γ-^32P]ATP (3000 Ci/mmol; NEN Life Science Products, Boston, Mass.). […] The phospholipids were extracted with 160 μL of chloroform/methanol (1:1, v/v). 50 μL of the organic phase, containing the labeled PI3-kinase products were separated by borate thin layer chromatography on glass-backed Silica Gel 60 plates (EM Separations, Gibbstown, N.J.) pretreated with a solution containing 25 mM trans-1,2-diaminocyclohexane-N,N,N′N′-tetraacetic acid (CDTA, Sigma, Saint Louis, Mo.), 66% (v/v) ethanol and 0.06 N NaOH, dried for 1 hour and then baked at 100° C. for 15 minutes. The chromatography was developed with a solution containing 37.5% (v/v) methanol, 30% (v/v) chloroform, 22.5% (v/v) pyridine (Sigma, Saint Louis, Mo.), 1.33% (v/v) formic acid, […] boric acid and 8.5 mM butylated hydroxytoluene (Sigma, Saint Louis, Mo.), briefly dried and exposed to autoradiography.

Akt/PKB [2] = assay: Immunoblotting of Akt phosphorylation (Thr 308, Ser 473); assay type: cell-based, human; conditions: E2/αE2 10 nM, insulin 100 nM, 20 min
Protocol: After the different treatments, serum-starved endothelial cells were rinsed once with ice-cold PBS before addition of the lysis buffer (100 mM Tris-HCl, pH 6.8, 4% SDS, 20% glycerol, 1 mM sodium orthovanadate, 1 mM NaF, and 1 mM phenylmethylsulfonylfluoride) to the dishes on an ice tray. The cell lysates were scraped, boiled, and centrifuged for 2 min at 13000 rpm. Total cell lysates (40 μg of protein) and low range molecular weight markers (BIO-RAD, Hercules, Calif.) were separated by SDS-polyacrylamide gel electrophoresis (12% running, 4% stacking), electrophoretically transferred to polyvinylidene fluoride membranes (Immobilon P, 0.45 μm pore size) and incubated overnight at 4° C. with blocking solution (5% skim milk in TBS—0.1% Tween 20). Affinity-purified rabbit antibodies (0.4 μg of IgG/ml) vs. Akt, (Ser 473) phospho-Akt or (Thr 308) phospho-Akt (New England BioLabs, Beverly, Mass.), Erk1/2, (Tyr 204) phospho-Erk-1/-2 (Calbiochem, San Diego, Calif.) were incubated with the membranes overnight at 4° C. in TBS—0.1% Tween 20 containing 5% BSA. The blots were washed three times with TBS—0.1% Tween 20 and then treated with donkey anti-rabbit antibody (1:4000 dilution) coupled to horseradish peroxidase. Immunodetection was accomplished using the enhanced chemoluminescence kit (ECL Kit, Amersham Corp.).

ER-α / PI3-kinase p85α = target: T1, ER-α / PI3-kinase p85α (Homo sapiens, UniProt P03372); assay: ER-α immunoprecipitation: co-precipitated p85α and associated PI3-kinase activity; assay type: cell-based; conditions: ICI 10 μM, wortmannin, tamoxifen 1 μM, PD 98059 5 μM, actinomycin D 5 μM
T1 construct: endogenous in cells; host or cells: human endothelial cells (HSVEC), anti-ERα immunoprecipitate
T1 sequence (P03372 1-595): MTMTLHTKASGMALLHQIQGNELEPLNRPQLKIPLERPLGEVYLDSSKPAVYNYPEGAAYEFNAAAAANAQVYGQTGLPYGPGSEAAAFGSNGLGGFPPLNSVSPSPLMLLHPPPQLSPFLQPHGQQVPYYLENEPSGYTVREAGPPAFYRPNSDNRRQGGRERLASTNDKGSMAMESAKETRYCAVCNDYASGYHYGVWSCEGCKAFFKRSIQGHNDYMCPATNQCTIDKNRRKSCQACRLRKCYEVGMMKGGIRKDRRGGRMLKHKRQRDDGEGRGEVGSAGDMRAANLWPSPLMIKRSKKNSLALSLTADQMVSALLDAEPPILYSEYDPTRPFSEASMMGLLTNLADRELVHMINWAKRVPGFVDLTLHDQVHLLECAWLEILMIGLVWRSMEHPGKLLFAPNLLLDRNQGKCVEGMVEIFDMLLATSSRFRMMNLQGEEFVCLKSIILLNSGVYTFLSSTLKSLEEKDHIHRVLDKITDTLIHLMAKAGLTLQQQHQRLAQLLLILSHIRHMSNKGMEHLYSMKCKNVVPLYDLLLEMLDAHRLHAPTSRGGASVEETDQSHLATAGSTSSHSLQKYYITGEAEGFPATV

| SMILES | stimulation of NO release / production (nitrite accumulation) (NO release) | stimulation of eNOS activity by the substance alone (eNOS; E2/αE2 10 nM, insulin 100 nM, 30 min) | stimulation of Akt kinase activity (words) (Akt/PKB [1]) | stimulation of Akt kinase activity (words) (Akt/PKB [1]; listed as 17a-estradiol) | stimulation of PI3-kinase activity (PI3-kinase) | stimulation of PI3-kinase activity (PI3-kinase; listed as αE2) | Akt Ser 473 phosphorylation (Akt/PKB [2]) | Akt threonine (Thr 308) phosphorylation (Akt/PKB [2]) | effect on E2-stimulated ER-α-associated PI3-kinase activity (ER-α / PI3-kinase p85α) | effect on E2-stimulated eNOS activity, later phase (≥15 min) or 30 min (eNOS) | effect on insulin-induced eNOS activity (eNOS; insulin 100 nM, 30 min) | effect on basal eNOS activity, substance alone (eNOS; no E2) | effect on E2-stimulated eNOS activity, later phase (≥15 min) or 30 min (eNOS; listed as Genistein) | effect on E2-stimulated eNOS activity, initial phase (first 5-10 min) (eNOS) | effect on E2-stimulated eNOS activity, initial phase (first 5-10 min) (eNOS; listed as Genistein) | effect on E2-induced PI3-kinase activation (PI3-kinase; E2 10 nM 20 min, ICI 10 μM, wortmannin 30 nM) |
| --- | --- | --- | --- | --- | --- | --- | --- | --- | --- | --- | --- | --- | --- | --- | --- | --- |
| C[C@]12CC[C@@H]3c4ccc(O)cc4CC[C@H]3[C@@H]1CC[C@H]2O [17α-estradiol] | very low effect; also recorded: inability | no effect; also recorded: inability | ineffective | small increase | ineffective; also recorded: inability | lack | ineffective | ineffective; also recorded: minimal increase | – | – | – | – | – | – | – | – |
| Cc1c2oc3c(C)ccc(C(=O)N[C@@H]4C(=O)N[C@H](C(C)C)C(=O)N5CCC[C@H]5C(=O)N(C)CC(=O)N(C)[C@@H](C(C)C)C(=O)O[C@@H]4C)c3nc-2c(C(=O)N[C@@H]2C(=O)N[C@H](C(C)C)C(=O)N3CCC[C@H]3C(=O)N(C)CC(=O)N(C)[C@@H](C(C)C)C(=O)O[C@@H]2C)c(N)c1=O [actinomycin D] (I: T[dV]P[Sar][NMeV] / II: T[dV]P[Sar][NMeV]; ester I:1-I:C, II:1-II:C; linker I:N-II:N via Actinocin(9to1)) | – | – | – | – | – | – | – | – | not | did not affect; also recorded: no effect | did not affect; also recorded: no inhibitory effect | nor had any effects by itself; also recorded: no effect | – | – | – | – |
| O=c1c(-c2ccc(O)cc2)coc2cc(O)cc(O)c12 [genistein] | – | – | – | – | – | – | – | – | – | only minimally affected; also recorded: not the later phase; also recorded: little or no inhibitory effect | – | – | do not block | able to block; also recorded: significantly blocked | blunt | only minimally affected |
